# Measurements published in patent US12540913B2, “Chemical sensor, reagent, and method for detecting benzoic acid and benzoic acid derivative” (KABUSHIKI KAISHA TOSHIBA, priority 2023, dated 2026).
# pKd: −log10 of the molar value. Read-outs that look alike come from different tables or passages of the source.
# Molecular target: cocaine aptamer
# Details: for pKd: read-out: dissociation constant Kd
Compound,"pKd (Comparative Example 1: 1 mM methyl benzoate titrated into 50 μM cocaine aptamer in D-PBS(−), no tropane derivative, binding order 1)",pKd (Example 1: 1 mM methyl benzoate titrated into 50 μM cocaine aptamer in D-PBS(−) containing 10 μM tropine),ITC heat generation (Comparative Example 2: 1 mM tropine titrated into 50 μM cocaine aptamer in D-PBS(−)),ITC heat generation (Comparative Example 3: 1 mM tropine titrated into 50 μM cocaine aptamer in D-PBS(−) containing 10 μM methyl benzoate)
COC(=O)c1ccccc1 [methyl benzoate],4.06,4.16,–,–
CN1[C@@H]2CC[C@H]1C[C@@H](O)C2 [tropine],–,–,no heat generation was observed,no heat generation was observed
